Measurements reported in patent US11339502B2, “Combinatorial derivatives of oligopeptides having antiviral properties” (priority 2017, dated 2022).

Columns and labels:
Type in all cases: cell-based
[1] = system: vesicular stomatitis virus (reference strain)
[2] = system: herpes simplex virus type 1 (strain L-2)
H1N1 influenza virus = system: H1N1 influenza virus

KKRKRKRKR [derivative 54]
0%: % cytoprotective antiviral activity, Vesic [1] | % cytoprotective antiviral activity, Herp [2] | % cytoprotective antiviral activity, Inf (H1N1 influenza virus)
